≈ marks a conversion by molar mass, not a printed value.
What was measured:
Test in all cases: ≥ marks a high value that may be exact or a test limit, other limits are often not marked, values filed in µg/mL are converted to µM
[1] = system: Candida albicans ATCC 90028
[2] = system: Candida krusei ATCC 6258
[3] = system: Candida parapsilosis ATCC 22019
[4] = system: Candida albicans SC5314
[5] = system: Bordetella bronchiseptica MTCC 6837
[6] = system: Vibrio cholerae MTCC 3904
[7] = system: Proteus mirabilis MTCC 3158
[8] = system: Enterococcus faecalis MTCC 439
[9] = system: Shigella boydii MTCC 11947
[10] = system: Stenotrophomonas maltophilia MTCC 1890
[11] = system: Pluralibacter gergoviae MTCC 3826
[12] = system: Citrobacter koseri MTCC 1657
[13] = system: Klebsiella oxytoca MTCC 2275
[14] = system: Escherichia coli K12 MG1655
[15] = system: Haemophilus influenzae MTCC 621
[16] = system: Klebsiella aerogenes MTCC 111
[17] = system: Alkalihalobacillus alcalophilus MTCC 860
[18] = system: Alcaligenes faecalis MTCC 1937
[19] = system: Pseudomonas aeruginosa MTCC 3542
[20] = system: Shigella flexneri MTCC 1457
[21] = system: Salmonella enterica subsp. enterica serovar Typhimurium ATCC 14028
[22] = system: Salmonella enterica MTCC 9844
[23] = system: Staphylococcus aureus MTCC 3160
[24] = system: Corynebacterium glutamicum MTCC 2679
[25] = system: Proteus vulgaris MTCC 1771
[26] = system: Citrobacter freundii MTCC 1658
[27] = system: Klebsiella pneumoniae MTCC 7407
[28] = system: Acinetobacter baumannii MTCC 9829
[29] = system: Staphylococcus haemolyticus MTCC 3383

Structure (SMILES)	MIC [5]	MIC [6]	MIC [7]	MIC [8]	MIC [9]	MIC [10]	MIC [11]	MIC [12]	MIC [13]	MIC [14]	MIC [15]	MIC [16]	MIC [17]	MIC [18]	MIC [19]	MIC [20]	MIC [21]	MIC [22]	MIC [23]	MIC [24]	other results
CC[C@H](C)[C@H](NC(=O)CN)C(=O)N[C@@H](Cc1c[nH]c2ccccc12)C(=O)N[C@@H](CCCCN)C(=O)N[C@@H](CCCCN)C(=O)N[C@@H](Cc1c[nH]c2ccccc12)C(=O)N[C@H](C(=O)N[C@@H](CCCCN)C(=O)N[C@@H](CCCCN)C(=O)N[C@@H](Cc1c[nH]c2ccccc12)C(=O)N[C@@H](CC(C)C)C(=O)N[C@@H](CCCCN)C(=O)N[C@@H](CCCCN)C(=O)N[C@@H](CC(C)C)C(=O)N[C@@H](CC(C)C)C(=O)N[C@@H](CCCCN)C(=O)N[C@@H](CCCCN)C(=O)N[C@@H](CC(C)C)C(=O)N[C@@H](Cc1c[nH]c2ccccc12)C(=O)N[C@@H](CCCCN)C(=O)N[C@@H](CCCCN)C(=O)NCC(=O)O)[C@@H](C)CC [GIWKKWIKKWLKKLLKKLWKKG]	–	–	–	–	–	–	–	–	–	–	–	–	–	–	–	–	–	–	–	–	MIC [1]: 22.6 µM (≈ 64 µg/mL); MIC [2]: 22.6 µM (≈ 64 µg/mL); MIC [3]: 22.6 µM (≈ 64 µg/mL); MIC [4]: 11.3 µM (≈ 32 µg/mL)
CC[C@H](C)[C@H](NC(=O)CNC(=O)[C@H](CCCCN)NC(=O)[C@H](C)NC(=O)[C@H](C)NC(=O)[C@H](CCCCN)NC(=O)[C@H](Cc1cnc[nH]1)NC(=O)[C@@H](NC(=O)[C@H](C)NC(=O)[C@H](CCCCN)NC(=O)[C@H](Cc1c[nH]c2ccccc12)NC(=O)CN)[C@@H](C)CC)C(=O)N[C@@H](Cc1cnc[nH]1)C(=O)N[C@H](C(=O)N[C@@H](Cc1ccc(O)cc1)C(=O)N[C@H](C(=O)N[C@@H](CC(N)=O)C(=O)O)C(C)C)[C@@H](C)O [GWKAIHKAAKGIHTYVN]	≥ 67.6 µM	≥ 67.6 µM	≥ 67.6 µM	≥ 67.6 µM	≥ 67.6 µM	≥ 67.6 µM	≥ 67.6 µM	≥ 67.6 µM	≥ 67.6 µM	≥ 67.6 µM	≥ 33.8 µM	≥ 67.6 µM	≥ 67.6 µM	≥ 67.6 µM	≥ 67.6 µM	≥ 67.6 µM	> 67.6 µM	≥ 67.6 µM	≥ 67.6 µM	≥ 33.8 µM	MIC [25]: ≥ 67.6 µM; MIC [26]: ≥ 67.6 µM; MIC [27]: ≥ 67.6 µM; MIC [28]: ≥ 67.6 µM; MIC [29]: ≥ 67.6 µM
CC[C@H](C)[C@H](NC(=O)[C@@H](NC(=O)[C@H](C)NC(=O)[C@H](Cc1cnc[nH]1)NC(=O)[C@H](CC(C)C)NC(=O)[C@H](CCCN=C(N)N)NC(=O)[C@H](C)NC(=O)[C@H](Cc1ccc(O)cc1)NC(=O)[C@@H](NC(=O)[C@@H](N)CCCCN)C(C)C)C(C)C)C(=O)N[C@@H](CCCCN)C(=O)N[C@@H](CCCN=C(N)N)C(=O)N[C@@H](CC(C)C)C(=O)N[C@@H](Cc1cnc[nH]1)C(=O)N[C@@H](CCCN=C(N)N)C(=O)N[C@@H](CCCN=C(N)N)C(=O)N[C@@H](CC(C)C)C(=O)N[C@@H](Cc1cnc[nH]1)C(=O)O [KVYARLHAVIKRLHRRLH]	1.76 µM (≈ 4 µg/mL)	≥ 56.5 µM	≥ 56.5 µM	≥ 56.5 µM	3.53 µM (≈ 8 µg/mL)	≥ 56.5 µM	≥ 56.5 µM	14.1 µM (≈ 32 µg/mL)	3.53 µM (≈ 8 µg/mL)	7.06 µM (≈ 16 µg/mL)	1.76 µM (≈ 4 µg/mL)	≥ 56.5 µM	14.1 µM (≈ 32 µg/mL)	≥ 56.5 µM	≥ 56.5 µM	1.76 µM (≈ 4 µg/mL)	14.1 µM (≈ 32 µg/mL)	14.1 µM (≈ 32 µg/mL)	≥ 56.5 µM	0.882 µM (≈ 2 µg/mL)	MIC [25]: ≥ 56.5 µM; MIC [26]: 14.1 µM (≈ 32 µg/mL); MIC [27]: ≥ 56.5 µM; MIC [28]: 14.1 µM (≈ 32 µg/mL); MIC [29]: 1.76 µM (≈ 4 µg/mL)
